The text below walks through data of patent US12275735B2, “Ergoline analogues” (BECKLEY PSYTECH LIMITED, priority 2021, dated 2025).

Format in all cases: cell-based
In one assay the target is T1, Human 5-HT2B Receptor (Homo sapiens, UniProt P41595).
T1 construct: host or cells: CHO-K1
The assay is described as follows: Serotonin receptor inositol phosphate 1 (IP1) assay (Multispan). The conditions noted are these: 5-HT 2b receptor; reference 1 μM serotonin; FIG. 2. The protocol: (§1) Compounds 018 and 019 were assayed using a serotonin (2a, 2b and 2c receptors) inositol phosphate 1 (IP1) assay, provided by Multispan. The reference used was 1 μM serotonin to calculate the percentage relative response. The results can be seen in FIG. 2. Both compounds appear to some activity against all three target receptors in this assay.
(§2) IP-One Gq kit—cisbio—cat. No. 62IPAPEB
MULTISCREEN™ CHO-K1 Cell Line Stably Expressing Human 5-HT2B Receptor, Catalog DC1325-1

Assay [1] deals with T2, Human 5-HT2A Receptor (Homo sapiens, UniProt P28223).
T2 construct: host or cells: CHO-K1
Described as above. The conditions noted are these: 5-HT 2a receptor; reference 1 μM serotonin; FIG. 2. The protocol:
as §1, §2
(§3) MULTISCREEN™ CHO-K1 Cell Line Stably Expressing Human 5-HT2A Receptor, Catalog DC1324-1

The target in assay [2] is T3, Human 5-HT2C Receptor (Homo sapiens, UniProt P28335).
T3 construct: host or cells: CHO-K1
T3 sequence (P28335 33-458): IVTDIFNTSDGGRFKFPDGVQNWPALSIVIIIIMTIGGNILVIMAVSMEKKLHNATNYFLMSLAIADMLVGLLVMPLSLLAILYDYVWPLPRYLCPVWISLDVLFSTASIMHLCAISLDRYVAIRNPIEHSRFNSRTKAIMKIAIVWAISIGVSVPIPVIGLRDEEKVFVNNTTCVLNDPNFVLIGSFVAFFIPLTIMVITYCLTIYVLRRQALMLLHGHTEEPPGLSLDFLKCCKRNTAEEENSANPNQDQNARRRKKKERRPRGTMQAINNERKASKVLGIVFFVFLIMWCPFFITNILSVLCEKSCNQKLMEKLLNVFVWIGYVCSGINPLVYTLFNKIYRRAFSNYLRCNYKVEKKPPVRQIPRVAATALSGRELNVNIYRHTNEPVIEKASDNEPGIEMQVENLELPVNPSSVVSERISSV
The assay can be described thus: Serotonin receptor calcium (Ca2+) assay (Multispan, FLIPR). The following applies: 5-HT 2c receptor; reference 10 μM serotonin; FIG. 3. The protocol: (§4) Compounds 018 and 019 were assayed using a serotonin (2a, 2b and 2c receptors) calcium (Ca^2+) assay, provided by Multispan. The reference used was 10 μM serotonin to calculate the percentage relative response in relative light units (RLU). The results can be seen in FIG. 3. Both compounds have some activity against the 2a and 2c receptors.
(§5) FLIPR calcium 6 assay explorer kit—VWR—cat. No. MLDVR8190
(§6) MULTISCREEN™ CHO-K1 Cell Line Stably Expressing Human 5-HT2C Receptor, Catalog DC1326-1

Assay [3] has as its target T3, Human 5-HT2C Receptor. The assay is described as follows: Serotonin receptor inositol phosphate 1 (IP1) assay (Multispan). The following applies: 5-HT 2c receptor; reference 1 μM serotonin; FIG. 2. The protocol:
as §1, §2, §6

The target of assay [4] is T2, Human 5-HT2A Receptor. The assay can be described thus: Serotonin receptor calcium (Ca2+) assay (Multispan, FLIPR). The conditions noted are these: 5-HT 2a receptor; reference 10 μM serotonin; FIG. 3. How it is done:
as §4, §5, §3

A further assay concerns the target T4, HTR1A (Homo sapiens, UniProt P08908).
T4 construct: host or cells: CHO-K1
T4 sequence (P08908 1-422): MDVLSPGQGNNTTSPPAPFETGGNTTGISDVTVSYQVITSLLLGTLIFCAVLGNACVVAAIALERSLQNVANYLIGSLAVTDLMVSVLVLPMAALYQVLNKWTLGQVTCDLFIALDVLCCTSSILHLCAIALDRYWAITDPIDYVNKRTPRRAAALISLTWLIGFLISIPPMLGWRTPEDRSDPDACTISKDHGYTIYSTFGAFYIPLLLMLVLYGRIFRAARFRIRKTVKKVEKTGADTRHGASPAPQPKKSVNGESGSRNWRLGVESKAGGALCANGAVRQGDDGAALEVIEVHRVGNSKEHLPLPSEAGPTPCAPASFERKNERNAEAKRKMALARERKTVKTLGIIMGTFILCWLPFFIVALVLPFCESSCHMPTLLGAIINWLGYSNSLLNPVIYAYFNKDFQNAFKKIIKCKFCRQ
The assay is described as follows: Serotonin receptor B-arrestin assay (DiscoverX PathHunter). The following applies: 5-HT 1a receptor; reference 10 μM serotonin; FIG. 4. The protocol:
(§7) Compounds 018 and 019 were assayed using a serotonin (1a, 1b, 2a and 2c receptors) B-arrestin assay, provided by DiscoverX. The reference used was 10 μM serotonin to calculate the percentage relative response. The results can be seen in FIG. 4.
(§8) For the B-arrestin assays the cells came with the kits apart from the 2b receptor assay (Valiscreen serotonin 5HT-26 (human) cell line—ES-314-C, Perkin Elmer).

Another assay deals with T5, HTR1B (Homo sapiens, UniProt P28222).
T5 construct: host or cells: U2OS
Described as above. The conditions noted are these: 5-HT 1b receptor; reference 10 μM serotonin; FIG. 4. How it is done: as §7, §8

Another assay concerns the target T6, HTR2C (Homo sapiens, UniProt P28335).
T6 construct: host or cells: U2OS
T6 sequence (P28335 33-458): T3 sequence (P28335 33-458)
The description is as above. The following applies: 5-HT 2c receptor; reference 10 μM serotonin; FIG. 4. How it is done:
as §7, §8

The target in the next assay is T7, HTR2A (Homo sapiens, UniProt P28223).
T7 construct: host or cells: U2OS
The assay is described as above. The following applies: 5-HT 2a receptor; reference 10 μM serotonin; FIG. 4. The protocol:
as §7, §8

In assay [5] the target is T3, Human 5-HT2C Receptor. The assay can be described thus: Serotonin receptor cAMP assay (Multispan, HTRF). The following applies: 5-HT 2c receptor; reference 10 μM forskolin, serotonin control; FIG. 1. How it is done: (§9) Compounds 018 (above, left) and 019 (above, right) were assayed using a serotonin (1a, 1b, 2a, 2c and 7 receptors) cAMP assay, provided by Multispan. The reference used was 10 μM forskolin (a cAMP activator) to calculate the percentage relative response, serotonin was used as the control. The results can be seen in FIG. 1. Compound 019 was active against in all other receptor assays.
(§10) cAMP Gs dynamic kit—cisbio—cat. No. 62AM4PEC
as §6
For orientation: cAMP levels reflect the balance of adenylyl cyclase and phosphodiesterase activity.

Another assay concerns the target T8, Human 5-HT1A Receptor (Homo sapiens, UniProt P08908).
T8 construct: host or cells: HEK293T
T8 sequence (P08908 1-422): T4 sequence (P08908 1-422)
The assay is described as follows: Serotonin receptor cAMP assay (Multispan, HTRF). The following applies: 5-HT 1a receptor; reference 10 μM forskolin, serotonin control; FIG. 1. The protocol:
as §9, §10
MULTISCREEN™ HEK293T Cell Line Stably Expressing Human 5-HT1A Receptor, Catalog DC1319a

A further assay concerns the target T9, Human 5-HT1B Receptor (Homo sapiens, UniProt P28222).
T9 construct: host or cells: HEK293T
The assay can be described thus: Serotonin receptor cAMP assay (Multispan, HTRF). The following applies: 5-HT 1b receptor; reference 10 μM forskolin, serotonin control; FIG. 1. How it is done:
as §9, §10
MULTISCREEN™ HEK293T Cell Line Stably Expressing Human 5-HT1B Receptor, Catalog DC1320a
MULTISCREEN™ HEK293T Cell Line Stably Expressing Human 5HT1B Receptor, Catalog DC1320a

In the next assay the target is T10, Human 5-HT7 Receptor (Homo sapiens, UniProt P34969).
T10 construct: host or cells: HEK293T
The assay can be described thus: Serotonin receptor cAMP assay (Multispan, HTRF). The conditions noted are these: 5-HT 7 receptor; reference 10 μM forskolin, serotonin control; FIG. 1. The protocol:
as §9, §10
MULTISCREEN™ HEK293T Cell Line Stably Expressing Human 5-HT7 Receptor, Catalog DC1334

Assay [6] concerns the target T2, Human 5-HT2A Receptor. The assay can be described thus: Serotonin receptor cAMP assay (Multispan, HTRF). The conditions noted are these: 5-HT 2a receptor; reference 10 μM forskolin, serotonin control; FIG. 1. How it is done: as §9, §10, §3

T2 sequence (P28223 whole entry): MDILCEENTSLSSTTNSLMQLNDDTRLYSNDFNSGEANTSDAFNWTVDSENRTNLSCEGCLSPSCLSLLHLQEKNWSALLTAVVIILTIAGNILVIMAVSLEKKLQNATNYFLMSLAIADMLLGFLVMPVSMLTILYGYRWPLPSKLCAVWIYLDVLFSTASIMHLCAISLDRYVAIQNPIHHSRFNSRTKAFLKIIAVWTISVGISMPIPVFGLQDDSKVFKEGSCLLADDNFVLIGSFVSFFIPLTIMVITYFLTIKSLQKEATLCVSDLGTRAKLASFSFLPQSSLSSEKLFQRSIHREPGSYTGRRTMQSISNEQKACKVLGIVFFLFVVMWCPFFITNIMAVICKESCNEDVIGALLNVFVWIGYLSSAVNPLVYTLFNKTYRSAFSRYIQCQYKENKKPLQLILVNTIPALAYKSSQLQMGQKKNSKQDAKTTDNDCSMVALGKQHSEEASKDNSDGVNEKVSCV
T1 sequence (P41595 whole entry): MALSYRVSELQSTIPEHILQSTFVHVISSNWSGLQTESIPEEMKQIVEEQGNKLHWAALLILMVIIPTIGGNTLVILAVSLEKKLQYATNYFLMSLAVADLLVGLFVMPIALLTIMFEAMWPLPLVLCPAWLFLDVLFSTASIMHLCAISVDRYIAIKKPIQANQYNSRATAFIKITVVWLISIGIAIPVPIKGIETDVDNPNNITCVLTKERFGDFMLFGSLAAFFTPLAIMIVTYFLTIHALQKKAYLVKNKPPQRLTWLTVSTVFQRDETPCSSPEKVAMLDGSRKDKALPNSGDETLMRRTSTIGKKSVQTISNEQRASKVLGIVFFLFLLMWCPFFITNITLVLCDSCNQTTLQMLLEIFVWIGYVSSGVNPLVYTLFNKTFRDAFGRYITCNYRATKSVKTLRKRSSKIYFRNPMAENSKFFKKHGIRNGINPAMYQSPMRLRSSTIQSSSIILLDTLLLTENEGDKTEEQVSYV
T5 sequence (P28222 whole entry): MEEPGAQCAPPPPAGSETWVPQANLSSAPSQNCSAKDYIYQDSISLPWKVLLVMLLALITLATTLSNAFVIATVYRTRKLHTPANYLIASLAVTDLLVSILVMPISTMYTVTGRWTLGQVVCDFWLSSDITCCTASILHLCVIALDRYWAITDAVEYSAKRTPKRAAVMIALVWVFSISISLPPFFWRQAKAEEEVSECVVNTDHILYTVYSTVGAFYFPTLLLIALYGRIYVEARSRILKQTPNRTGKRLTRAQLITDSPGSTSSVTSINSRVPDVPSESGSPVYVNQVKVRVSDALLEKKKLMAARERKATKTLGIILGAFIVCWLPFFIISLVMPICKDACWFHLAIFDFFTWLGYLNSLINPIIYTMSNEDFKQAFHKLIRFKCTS
T7 sequence (P28223 whole entry): as the sequence (P28223 whole entry) above
T10 sequence (P34969 whole entry): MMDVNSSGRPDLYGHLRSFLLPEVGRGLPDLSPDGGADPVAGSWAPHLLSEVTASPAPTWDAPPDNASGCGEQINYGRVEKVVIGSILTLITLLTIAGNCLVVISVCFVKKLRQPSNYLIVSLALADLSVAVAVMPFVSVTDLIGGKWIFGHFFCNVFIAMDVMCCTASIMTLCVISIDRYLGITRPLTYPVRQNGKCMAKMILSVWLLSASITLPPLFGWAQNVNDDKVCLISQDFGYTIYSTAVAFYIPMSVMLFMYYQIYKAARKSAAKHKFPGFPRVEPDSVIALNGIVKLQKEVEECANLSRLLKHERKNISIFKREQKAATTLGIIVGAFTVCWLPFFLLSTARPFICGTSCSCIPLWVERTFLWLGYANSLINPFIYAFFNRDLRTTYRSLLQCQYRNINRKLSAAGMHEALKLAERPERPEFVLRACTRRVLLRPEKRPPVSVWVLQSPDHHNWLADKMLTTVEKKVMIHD
T9 sequence (P28222 whole entry): as the sequence (P28222 whole entry) above

With `CCCCCN(C(=O)[C@@H]1C=C2c3cccc4[nH]cc(c34)C[C@H]2N(C)C1)C(C)C` [Compound 018, (4R,6R,7R)-6-methyl-4-[pentyl(propan-2-yl)carbamoyl]-6,11-diazatetra-cyclo[7.6.1.0^2,^7.0^12,^16] hexadeca-1(16),2,9,12,14-pentaen-6-ium], the IP1 assay activity result on Human 5-HT2B Receptor, on Human 5-HT2A Receptor [1] and on Human 5-HT2C Receptor [3] was “some activity” in each case. The “Calcium (Ca2+) assay activity” value on Human 5-HT2C Receptor [2] and at Human 5-HT2A Receptor [4] was “some activity” throughout. Also, the B-arrestin assay activity result at HTR1A, at HTR1B, on HTR2C and on HTR2A was “some activity” in each case.
As to `CC(C)NC(=O)[C@@H]1C=C2c3cccc4[nH]cc(c34)C[C@H]2N(C)C1` [Compound 019, (4R,6R,7R)-6-methyl-4-[(propan-2-yl)carbamoyl]-6,11-diazatetra-cyclo[7.6.1.0^2,^7^7.0^12,^16] hexadeca-1(16),2,9,12,14-pentaen-6-ium], the cAMP assay activity result at Human 5-HT2C Receptor [5] was “active”; at Human 5-HT1A Receptor it was “active”; at Human 5-HT1B Receptor, “active”; on Human 5-HT7 Receptor, “active”; at Human 5-HT2A Receptor [6], “stimulates the 5HT2aR leading to downstream activation of cAMP”. Moreover, the IP1 assay activity entry on Human 5-HT2B Receptor, at Human 5-HT2A Receptor [1] and at Human 5-HT2C Receptor [3] was “some activity” throughout. For the same compound, the “Calcium (Ca2+) assay activity” value at Human 5-HT2C Receptor [2] and at Human 5-HT2A Receptor [4] was “some activity” in each case. Further, the B-arrestin assay activity result on HTR1A, at HTR1B, on HTR2C and on HTR2A was “some activity” throughout.
